# Key:
# CtHtrA R299W/R373A = assay: Act1 activation of Bcas1 proteolysis by mutated protein; assay type: biochemical, Chlamydia trachomatis; settings: R299W/R373A mutant; Act1 120 µM
# Description: (§1) The hexameric CtHtrA molecular model was examined to identify the putative PDZ1 activator binding cleft (Fig. 4). The base of this cleft in CtHtrA is a hydrophobic pocket formed by the residues L302 and I365 (V328 in E. coli DegP) (Fig. 4). L302 and I365 were targeted for site directed mutagenesis (L302N and I365D) to make this non-polar pocket either polar or charged. The role of a potential conformational change caused by movement of the whole PDZ1 domain relative to the protease subunit was also tested by mutating a highly conserved arginine residue (R299W) on the flexible loop between the protease and PDZ domains. This mutation was made in order to alter the flexibility around this residue while occupying a similar sized area. Additionally, a second mutation was made in conjunction with the R299W mutation on the residue R373A which potentially forms a salt bridge between the PDZ domain and protease domain. This double mutation was made in order to reduce the flexibility and disrupt the mobile salt bridge involved in the PDZ1:protease domain interface. The R373A mutation was also made independently of R299W. These mutated proteins were assayed to examine the impact of the changes on Act1 activation on the Bcas1 substrate proteolysis. […]
# (§2) The purified recombinant protein was examined by Coomassie stained polyacrylamide gels and activity was checked using ß-casein cleavage assays prior to use in peptide assays. […] Protease assays using pNA labelled peptides were conducted using the xMARK Microplate spectrophotometer (Bio-Rad) at 405 nm, incubated at 37°C, with a reading taken every 10 s for 30 min. The maximum slope over a minimum of 8 readings was used for the data analysis. […] The assays were excited at 340 nm and emission was detected at 405 nm with a gain of 1000, the assays were monitored every 20 s or at the minimum cycle time for up to 40 min. […] The assay results shown for the fluorescent compounds have been normalised for the amount of fluorescent emission detected using a standard curve of known concentrations of the MCA fluorophore under the identical assay conditions. […]
# CtHtrA I365D = assay: as above; assay type: biochemical, Chlamydia trachomatis; settings: I365D mutant; Act1 120 µM
# Description: as §1, §2
# CtHtrA = molecular target: T1, CtHtrA (Chlamydia trachomatis serovar D, UniProt P18584); assay: Oligomerisation assay (glutaraldehyde crosslinking, 3-8% TrisAcetate gel, silver stain); assay type: biochemical; settings: wild type CtHtrA 2 mg/ml, 100 mM sodium phosphate pH 7.0, 10 mins at 37°C, 0.5% glutaraldehyde fixation
# T1 construct: His-tag; made in house; host or cells: E. coli BL21 (DE3), plasmid pETHtrA
# T1 sequence (P18584 17-497): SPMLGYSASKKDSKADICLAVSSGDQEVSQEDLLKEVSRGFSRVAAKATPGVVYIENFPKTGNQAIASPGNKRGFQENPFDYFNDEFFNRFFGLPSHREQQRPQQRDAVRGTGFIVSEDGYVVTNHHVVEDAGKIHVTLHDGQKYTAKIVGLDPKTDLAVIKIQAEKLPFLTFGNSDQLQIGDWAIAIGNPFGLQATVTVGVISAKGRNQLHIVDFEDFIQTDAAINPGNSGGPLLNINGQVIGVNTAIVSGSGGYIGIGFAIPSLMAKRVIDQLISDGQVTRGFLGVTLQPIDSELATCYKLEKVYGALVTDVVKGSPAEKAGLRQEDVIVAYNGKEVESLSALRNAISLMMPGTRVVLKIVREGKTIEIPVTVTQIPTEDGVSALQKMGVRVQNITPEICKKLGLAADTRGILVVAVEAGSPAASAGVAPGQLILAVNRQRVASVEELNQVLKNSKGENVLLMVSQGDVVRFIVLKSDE
# Method: E. coli DegP proteolysis activation involves the transition from resting hexamers via trimers to 12- and 24-mers following the peptide activator binding to the PDZ1 binding cleft. CtHtrA oligomer formation induced by Act1 addition was examined after incubation for 10 mins at 37°C. The wild type and mutant proteins were incubated with either the ß-casein based activator peptide (Act1), or with whole insulin (intact), or in the absence of any activator as a control. CtHtrA incubated in the absence of any added activators formed 24-mers with some hexamers detected after 10 mins (Fig. 5). […] The R299W mutant was present as hexamer and 24-mer in the control with no activator. […] The L302N mutant was not detected in any higher oligomeric form under any conditions. L302N was detected as faint hexamer and trimer but mostly monomer under all tested conditions (not visible on these gels). […] I365D was detected as hexamers, trimers, 12-mers, and some 24-mers when incubated in the absence of activators.
# The oligomerisation of HtrA into 12- and 24-mer complexes has been independently detected for E. coli HtrA (DegP). The oligomerisation of HtrA (DegP) was triggered by peptides from digested ß-casein [18]. Assays to detect whether CtHtrA and site directed mutant protein oligomerisation was triggered by substrates were conducted essentially as previously described (Merdanovic et al., 2010). Briefly, 2 mg/ml protein solutions in 100 mM sodium phosphate buffer pH 7.0 were pre-incubated to the required temperature. The ligands (activator peptide, or insulin) were added and at 10 min, and the proteins were fixed using 0.5% glutaraldehyde. Samples were fixed at room temperature for 2 min prior to addition of 1 M Tris pH 7.5 to remove any excess glutaraldehyde. Samples were incubated for another 10 min at room temperature prior to addition of SDS PAGE reducing loading buffer. The protein samples were examined on 3–8% TrisAcetate gradient polyacrylamide gels (Novex, Invitrogen) by silver staining. The proteins used in this study were not initially denatured by treatment with urea as, the refolding, formation of oligomers, and protease activity was never successfully detected with denatured CtHtrA. All assays were conducted in duplicate on three separate occasions with at least two gels of each experiment completed for each assay condition.
substance,measurement,setting,value
H-VLGPVRGPFPIIV-OH [Act1],effect of Act1 on Bcas1 proteolysis rate,CtHtrA R299W/R373A,failed to increase the proteolysis rate
same,effect of Act1 on Bcas1 proteolysis rate,CtHtrA I365D,failed to increase the proteolysis rate
same,CtHtrA oligomer formation induced by activator,CtHtrA,induced the protein to form 24-mers

# Source: publication PMC3169616, “Unique Residues Involved in Activation of the Multitasking Protease/Chaperone HtrA from Chlamydia trachomatis” (PLoS ONE, 2011)
